This note sets out measurements from US20040147495A1, “Sapogenin derivatives, their synthesis and use, and methods based upon their use” (priority 2001, published 2004).

Structures are written as SMILES.

For test [1], the system named is m3 muscarinic receptors. Kind of test: CHO-β2/m3 co-transfected cell line: m3 receptor density ([3H]NMS). The class given is cell-based, Chinese hamster. Particulars: day 5. As to the method:
(§1) Chinese hamster ovary (CHO) cells expressing high levels of muscarinic receptor (˜2.2 pmol mg protein^−1) were plated on a 24 well plate, 1 day before the start of the experiment. The culture medium was replaced with medium containing vehicle (DMSO) or the compounds.
(§2) The cells were incubated for 2/3 days, then after a medium change, cells were incubated for a further 2/3 days. The cells were incubated with a saturating concentration of labelled N-methyl-scopolamine, ([^3H]NMS). Cells were washed with ice cold phosphate-buffered saline (PBS) (3×) and bound [^3H]NMS determined by solubilising receptors with RIPA buffer followed by liquid scintillation counting.
(§3) The results shown in FIG. 5 used a CHO cell line co-transfected to express both β2 adrenoceptors and m3 muscarinic receptors. To measure the β2 and m3 receptor density, both [^3H]NMS and [^3H]CGP were used.

The test system of test [2] is β2 adrenoceptors. Kind of test: CHO-β2/m3 co-transfected cell line: β2 adrenoceptor density ([3H]CGP). It is filed as cell-based, Chinese hamster. The settings on record: day 5. On the procedure:
as §1, §2, §3

As for `CC(=O)OC1CCC2(C)C(CCC3C2CCC2(C)C3CC3OC4(CCC(C)CO4)C(C)C32)C1` (centres unmarked) [epismilagenin acetate], the “density of m3 receptors” value in test [1] is given as “did not significantly alter the density of m3 receptors”. In addition, the “decrease in β2 adrenoceptors” value in test [2] is “significantly prevented”.
